System: pre-cultured PBMCs (NSP12-specific T cells)
Assay: IFN-γ ELISpot with single 15-mer peptides after 11–13 days in vitro peptide-pool T-cell expansion
Assay type: cell-based, human
Details: for peptide-specific T-cell response, donor HH-N12-18, post COVID-19 / peptide-specific T-cell response, donor HH-N12-34, post COVID-19 / peptide-specific T-cell response, donor HH-N12-35, post COVID-19 / peptide-specific T-cell response, donor HH-N12-36, post COVID-19 / peptide-specific T-cell response, donor HH-N12-37, post COVID-19 / peptide-specific response, donor HH-N12-18, post COVID-19 / peptide-specific response, donor HH-N12-34, post COVID-19 / peptide-specific response, donor HH-N12-35, post COVID-19 / peptide-specific response, donor HH-N12-36, post COVID-19 / peptide-specific response, donor HH-N12-37, post COVID-19: sample post COVID-19; for peptide-specific T-cell response, donor HH-N12-18, post COVID-19 / peptide-specific T-cell response, donor HH-N12-18, pre COVID-19 / peptide-specific T-cell response, donor HH-N12-34, post COVID-19 / peptide-specific T-cell response, donor HH-N12-34, pre COVID-19 / peptide-specific T-cell response, donor HH-N12-35, post COVID-19 / peptide-specific T-cell response, donor HH-N12-35, pre COVID-19 / peptide-specific T-cell response, donor HH-N12-36, post COVID-19 / peptide-specific T-cell response, donor HH-N12-36, pre COVID-19 / peptide-specific T-cell response, donor HH-N12-37, post COVID-19 / peptide-specific T-cell response, donor HH-N12-37, pre COVID-19: single NSP12 15-mer peptide, 0 = no response; for peptide-specific T-cell response, donor HH-N12-18, pre COVID-19 / peptide-specific T-cell response, donor HH-N12-34, pre COVID-19 / peptide-specific T-cell response, donor HH-N12-35, pre COVID-19 / peptide-specific T-cell response, donor HH-N12-36, pre COVID-19 / peptide-specific T-cell response, donor HH-N12-37, pre COVID-19 / peptide-specific response, donor HH-N12-18, pre COVID-19 / peptide-specific response, donor HH-N12-34, pre COVID-19 / peptide-specific response, donor HH-N12-35, pre COVID-19 / peptide-specific response, donor HH-N12-36, pre COVID-19 / peptide-specific response, donor HH-N12-37, pre COVID-19: sample pre COVID-19; for peptide-specific response, donor HH-N12-18, post COVID-19 / peptide-specific response, donor HH-N12-18, pre COVID-19 / peptide-specific response, donor HH-N12-34, post COVID-19 / peptide-specific response, donor HH-N12-34, pre COVID-19 / peptide-specific response, donor HH-N12-35, post COVID-19 / peptide-specific response, donor HH-N12-35, pre COVID-19 / peptide-specific response, donor HH-N12-36, post COVID-19 / peptide-specific response, donor HH-N12-36, pre COVID-19 / peptide-specific response, donor HH-N12-37, post COVID-19 / peptide-specific response, donor HH-N12-37, pre COVID-19: single NSP12 15-mer peptides

Sequence	peptide-specific T-cell response, donor HH-N12-18, post COVID-19	peptide-specific T-cell response, donor HH-N12-18, pre COVID-19	peptide-specific T-cell response, donor HH-N12-34, post COVID-19	peptide-specific T-cell response, donor HH-N12-34, pre COVID-19	peptide-specific T-cell response, donor HH-N12-35, post COVID-19	peptide-specific T-cell response, donor HH-N12-35, pre COVID-19	peptide-specific T-cell response, donor HH-N12-36, post COVID-19	peptide-specific T-cell response, donor HH-N12-36, pre COVID-19	peptide-specific T-cell response, donor HH-N12-37, post COVID-19	peptide-specific T-cell response, donor HH-N12-37, pre COVID-19	peptide-specific response, donor HH-N12-18, post COVID-19	peptide-specific response, donor HH-N12-18, pre COVID-19	peptide-specific response, donor HH-N12-34, post COVID-19	peptide-specific response, donor HH-N12-34, pre COVID-19	peptide-specific response, donor HH-N12-35, post COVID-19	peptide-specific response, donor HH-N12-35, pre COVID-19	peptide-specific response, donor HH-N12-36, post COVID-19	peptide-specific response, donor HH-N12-36, pre COVID-19	peptide-specific response, donor HH-N12-37, post COVID-19	peptide-specific response, donor HH-N12-37, pre COVID-19
ASQGLVASIKNFKSV [compound 155]	0	0	0	0	0	0	0	0	0	0	–	–	–	–	–	–	–	–	–	–
DAVVCFNSTYASQGL [compound 153]	0	0	0	0	0	0	0	0	0	0	–	–	–	–	–	–	–	–	–	–
DFIQTTPGSGVPVVD [compound 45]	–	–	–	–	–	–	–	–	–	–	0	0	0	0.017	0	0	0	0	0	0
DIYNDKVAGFAKFLK [compound 8]	–	–	–	–	–	–	–	–	–	–	0	0	0	0	0	0	0	0	0	0
DLNGNWYDFGDFIQT [compound 43]	–	–	–	–	–	–	–	–	–	–	0.035	0	0	0	0	0	0	0.028	0	0
DQTYHPNCVNCLDDR [compound 59]	–	–	–	–	–	–	–	–	–	–	0	0	0	0	0	0	0	0.047	0	0
EDDNLIDSYFVVKRH [compound 13]	–	–	–	–	–	–	–	–	–	–	0	0	0	0	0	0	0	0	0	0
FFKFRIDGDMVPHIS [compound 21]	–	–	–	–	–	–	–	–	–	–	0	0	0	0	0	0	0	0	0	0

Reference: publication PMC10196118, “Evidence for broad cross-reactivity of the SARS-CoV-2 NSP12-directed CD4^+ T-cell response with pre-primed responses directed against common cold coronaviruses” (Frontiers in Immunology, 2023)
